Laboratory results reported in patent publication US10543178B2, “Dosage forms and related therapies” (PhilERA New Zealand Limited, priority 2002, dated 2020).
Values joined by “and” are separate entries in the source; they are usually repeats but may differ in a detail not shown here. Equal entries are not always repeated. “Also recorded” adds a separate entry of the source. Where two headings read alike, the source gives them in different places.

How the values were obtained:
[1] = Induction of diabetes by streptozotocin; assay type: in vivo, rat; details: three days following STZ injection, 55 mg·kg^−1 i.v., mean ± SEM
Text: In order to induce diabetes, male Wistar rats (n=28, 303±2.9 g) were divided randomly into diabetic and nondiabetic groups. […] Nondiabetic animals received an equivalent volume of saline. […] Blood glucose and body weight were measure at day 3 following STZ/saline injection and then weekly throughout the study. Diabetes was identified by polydipsia, polyuria and hyperglycemia (>11 mmol·l^−1, Advantage II, Roche Diagnostics, NZ Ltd).

[2] = reported, Kodama et al. 1997; cited from earlier work
[3] = Text: All animals were fasted overnight prior to surgery but continued to have ad libitum access to deionized water. […] The femoral artery and vein were cannulated with a solid-state blood pressure transducer (Mikrotip™ 1.4F, Millar Instruments, Texas, USA) and a saline filled PE 50 catheter respectively. The ureters were exposed via a midline abdominal incision, cannulated using polyethylene catheters (external diameter 0.9 mm, internal diameter 0.5 mm) and the wound sutured closed. The trachea was cannulated and the animal ventilated at 70-80 breaths·min^−1 with air supplemented with 02 (Pressure Controlled Ventilator, Kent Scientific, Connecticut, USA). The respiratory rate and end-tidal pressure (10-15 cmH2O) were adjusted to maintain end-tidal CO2 at 35-40 mmHg (SC-300 CO2 Monitor, Pryon Corporation, Wisconsin, USA). Body temperature was maintained at 37° C. throughout surgery and the experiment by a heating pad. Estimated fluid loss was replaced with intravenous administration of 154 mmol·l^−1 NaCl solution at a rate of 5 ml·kg^−1·h^−1.
(§1) Following surgery and a 20 min stabilization period, the experimental protocol was started. […] Control animals received an equivalent volume of saline. Urine was collected in 15 min aliquots throughout the experiment in pre-weighed polyethylene epindorf tubes. At the end of the experiment a terminal blood sample was taken by cardiac puncture and the separated serum stored at −80° C. until future analysis. Hearts were removed through a rapid mid-sternal thoracotomy and processed as described below.
Urine and tissue analysis was carried out as follows. Instrumentation: A Perkin Elmer (PE) Model 3100 Atomic Absorption Spectrophotometer equipped with a PE HGA-600 Graphite Furnace and PE AS-60 Furnace Autosampler was used for Cu and Fe determinations in urine. Deuterium background correction was employed. A Cu or Fe hollow-cathode lamp (Perkin Elmer Corporation) was used and operated at either […]. The 324.8 nm atomic line was used for Cu and the 248.3 nm atomic line for Fe. The slit width for both Cu and Fe was 0.7 nm. Pyrolytically coated graphite tubes were used for all analyses. The injection volume was 20 μL. A typical graphite furnace temperature program is shown below:
Urine: Urine was collected in pre-weighed 1.5 ml micro test tubes (eppendorf). After reweighing, the urine specimens were centrifuged and the supernatant diluted 25:1 with 0.02 M 69% Aristar grade HNO3. The sample was stored at 4° C. prior to GF-AAS analysis. If it was necessary to store a sample for a period in excess of 2 weeks, it was frozen and kept at −20° C. Serum: Terminal blood samples were centrifuged and serum treated and stored as per urine until analysis. From the trace metal content of serum from the terminal blood sample and urine collected over the final hour of the experiment, renal clearance was calculated using the following equation: […]
Statistical analyses were carried out as follows. All values are expressed as mean±SEM and P values <0.05 were considered statistically significant. Student's unpaired t-test was initially used to test for weight and glucose differences between the diabetic and control groups. For comparison of responses during drug exposure, statistical analyses were performed using analysis of variance (Statistics for Windows v.6.1, SAS Institute Inc., California, USA). Subsequent statistical analysis was performed using a mixed model repeated measures ANOVA design (see Example 4).

[4] = remark: listed apart in the source
Method: as §1
Mean arterial pressure (MAP), heart rate (HR, derived from the MAP waveform) oxygen saturation (Nonin 8600V Pulse Oximeter, Nonin Medical Inc., Minnesota, USA) and core body temperature, were all continuously monitored throughout the experiment using a PowerLab/16s data acquisition module (AD Instruments, Australia).
Following surgery and a 20 min stabilization period, the experimental protocol was started. […] Urine was collected throughout the experiment in 15 min aliquots.

[5] = normal and diabetic rats, acute i.v. increasing doses
Method: Methods were carried out as follows. Spectrophotometric analysis was conducted as described in Example 2. Cu, Fe and Zn in tissue digests were determined at Hill Laboratories (Hamilton, New Zealand) using either a PE Sciex Elan-6000 or PE Sciex Elan-6100 DRC ICP-MS.
Sample pre-treatment was carried out as follows. Heart: Following removal from the animal, the heart was cleaned of excess tissue, rinsed in buffer to remove excess blood, blotted dry and a wet ventricular weight recorded. Using titanium instruments a segment of left ventricular muscle was dissected and placed in a pre-weighed 5.0 ml polystyrene tube. The sample was freeze-dried overnight to constant weight before 0.45 ml of 69% Aristar grade HNO3 was added. The sample tube was heated in a water bath at 65° C. for 60 minutes. The sample was brought to 4.5 ml with Milli-Q H2O. The resulting solution was diluted 2:1 in order to reduce the HNO3 concentration below the maximum permitted for ICP-MS analysis.

STZ diabetic rats [6] = details: LCM and TEM
Text: Methods were as follows. Following functional analysis, LV histology was studied by laser confocal (LCM; FIG. 29a-d) and transmission electron microscopy (TEM; FIG. 29e-h). For LCM, LV sections were co-stained with phalloidin to visualize actin filaments, and β1-integrin as a marker for the extracellular space. Ding B, et al., “Left ventricular hypertrophy in ascending aortic stenosis in mice: anoikis and the progression to early failure,” Circulation 101:2854-2862 (2000).
For each treatment, 5 sections from each of 3 hearts were examined by both LCM and TEM. For LCM, LV sections were fixed (4% paraformaldehyde, 24 h); embedded (6% agar); vibratomed (120 pm, Campden); stained for f-actin (Phalloidin-488, Molecular Probes) and β1-integrin antibody with a secondary antibody of goat anti-rabbit conjugated to CY5 (1:200; Ding B, et al., “Left ventricular hypertrophy in ascending aortic stenosis in mice: anoikis and the progression to early failure,” Circulation 101:2854-2862 (2000)); and visualised (TCS-SP2, Leica). For TEM, specimens were post-fixed (1:1 v/v 1% w/v 0s0 M 0s0 M PBS); stained (aqueous uranyl acetate (2% w/v, 20 mm) then lead citrate (3 mm)); sectioned (70 nm); and visualized (CM-12, Phillips).

[7] = remark: listed apart in the source
Text: Methods were as follows. Human studies were approved by institutional ethics and regulatory committees. We measured urinary metal excretion in human males with T2DM or matched non-diabetic controls, baseline information on which is shown in Table 9, in a randomized, double blind, placebo-controlled trial. Males with uncomplicated T2DM (Table 9) underwent 12-d elemental balance studies in a fully residential metabolic unit. All foods and beverages were provided. Total daily intake (method of double diets) and excretion (urinary and fecal) of trace elements (Ca, Mg, Zn, Fe, Cu, Mn, Mo, Cr and Se) were determined (ICP MS).

[8] = T2DM and controls
Method: Total metal balance studies were performed in a residential metabolic unit. Total fecal outputs were collected daily for 12 days, freeze dried, and analyzed by ICP-MS for content of Cu, Fe, Zn, Ca, Mg, Mn, Cr, […] and Se.

[9] = 0.67-670 mg/ml in 0.9% saline, four months at 4° C.
Method: The concentrations of the stock formulations were: 0.67 mg/ml, 6.7 mg/ml, 67 mg/ml, and 670 mg/ml. The formulation was then administered to the rats in doses of 0.1 mg/kg, 1 mg/kg, 10 mg/kg, and 100 mg/kg to the animals respectively.

[10] = 15 days
Method: One sample of the solution was stored in the dark at 4° C. and 21° C. in the dark and a third sample was stored at 21° C. in daylight.
The Ultraviolet-visible spectrum of the formulation was initially measured at day 0 and then at day 15. 20 μl aliquots of sample solutions were taken at day 15. For each aliquot 960 μl of 50 mM TRIS buffer and 20p aliquot of Copper Nitrate standard (100 mM—Orion Research Inc) were added.

diabetic Wistar rats = details: six months of treatment
[11] = cited from earlier work
STZ diabetic rats [12] = assay: Isolated working heart: cardiac function after 7 weeks oral trientine in drinking water; details: for Heart weight / Left Ventricular wall thickness / Left Ventricular wall thickness per BW / Heart weight (g)/BW (g): trientine weeks 7-13
humans with T2DM = assay: 6-month randomized double-blind placebo-controlled trial of oral trientine, LV mass by cardiac MRI; details: 6 months' trientine therapy
Text: Subjects (30-70 y) who provided written informed consent were eligible for inclusion if they had: T2DM with HbAu1c>7%; cardiac ejection fraction (echocardiography) ≥45% with evidence of diastolic dysfunction but no regional wall-motion anomalies; no new medications for more than 6 months with no change of β-blocker dose; normal electrocardiogram (sinus rhythm, normal PR Interval, normal T wave and QRS configuration, and isoelectric ST segment); and greater than 90% compliance with single-blinded placebo therapy during a 2-w run-in period. Women were required to be post-menopausal, surgically sterile, or non-lactating and non-pregnant and using adequate contraception.
Before randomization, potentially eligible subjects entered a 4-w single blind run-in phase of two placebo-capsules twice-daily and underwent screening echocardiography, being excluded if regional wall motion abnormalities or impaired LV systolic function (ejection fraction <50%) were detected. In addition, LV diastolic filling was assessed using mitral inflow Doppler (with pre-load reduction) to ensure patients had abnormalities of diastolic filling; no patient with normal mitral filling proceeded to randomisation. […]
At baseline and following 6 months' treatment, LV mass was determined using cardiac MRI, performed in the supine position with the same 1.5 T scanner (Siemens Vision) using a phased array surface coil. […]

CN(N=O)C(=O)N[C@H]1C(O)O[C@H](CO)[C@@H](O)[C@@H]1O (mixture of isomers) [STZ, streptozotocin]
Blood glucose [1]: 25 ± 2 mmol/L

CC(=O)NCCNCCNCCN.Cl [N-acetyl-trientine hydrochloride]
Chelating activity compared with trientine dihydrochloride [2]: significantly lower

NCCNCCNCCN [trientine, N,N′-Bis(2-aminoethyl)-1,2-ethanediamine]
Iron excretion versus equivalent volume of saline ([3]; diabetic and nondiabetic rats): not greater
Total iron excretion versus saline ([3]; diabetic and nondiabetic rats): not different
Urinary Cu excretion versus equivalent volume of saline ([3]; diabetic and nondiabetic rats, all doses 0.1-100 mg/kg i.v.): excreted more Cu
Cu excretion in the urine versus saline ([3]; diabetic rats, 0.1 mg·kg^−1 i.v. (lowest dose)): significantly increased
Copper excretion per gram of body weight, diabetic versus nondiabetic animals ([3]; in response to each dose of drug): significantly greater
Total copper excreted over the entire duration of the experiment versus saline controls ([3]; nondiabetic and diabetic rats): significantly increased
Urine excretion versus equivalent volume of saline ([3]; nondiabetic rats, 100 mg·kg^−1 i.v.): increased
Form of urinary Cu by electron paramagnetic resonance spectroscopy ([3]; urine of drug-treated animals): mainly complexed as trientine-Cu^II
Time to recovery from blood pressure fall ([4]; 100 mg/kg i.v.): 10 min
Effect on blood pressure ([4]; acute i.v. 0.1, 1, 10 and 100 mg/kg): no significant effect
Effect of infusion on MAP and HR ([4]; doses below the highest dose): no effect
Time for MAP to return to pre-dose levels ([4]; highest dose 100 mg/kg i.v.): ≤ 10 min
Maximum decrease in MAP (blood pressure fall) ([4]; highest dose 100 mg/kg i.v., 2 min following administration, 100 mg/kg): 19±4 mmHg and 19+/−4 mmHg
Effect on the copper content of cardiac tissue [5]: no significant effect
Myocardium from trientine-treated nondiabetics (STZ diabetic rats [6]): appeared normal
Trientine-evoked urinary Fe excretion ([7]; T2DM and controls, oral 2.4 g): no corresponding increase
Urinary Cu versus placebo ([7]; both groups (T2DM and controls), day 7, oral 2.4 g): increased
Cu excretion from T2DM versus non-diabetic controls following trientine-treatment ([7]; day 7, 2.4-g oral dose, P<0.05): significantly greater
Effect on fecal outputs of Zn, Fe, Ca, Mg, Mn, Cr, Mb or Se [8]: Neither diabetes nor drug had measurable effects
Stability on storage (efficacy as copper chelator) [9]: remains active as a copper chelator
Stability on storage (efficacy as copper chelator) ([9]; listed as trientine hydrochloride): without appreciable deterioration in efficacy
Change in ability to chelate copper on storage ([10]; 100 mM in deionized water, 4° C. dark, 21° C. dark, 21° C. daylight): no detectable change
Effect of room light on copper chelation ([10]; 100 mM solution, 21° C. in daylight): no detectable detrimental effect
Protection of the heart from development of diabetic damage (cardiomyopathy), as judged by histology (diabetic Wistar rats): appears to protect
Bioavailability of the active species after oral administration [11]: < 10%
Cardiac function versus untreated diabetic controls (STZ diabetic rats [12]; STZ diabetic rats, oral trientine 7 weeks): improved; also recorded: global improvement in cardiac function
Heart weight (STZ diabetic rats [12]; STZ/D7 diabetic rats): 1.18 ± 0.24 g
Left Ventricular wall thickness (STZ diabetic rats [12]; STZ/D7 diabetic rats): 3.79 ± 0.52 mm
Left Ventricular wall thickness per BW (STZ diabetic rats [12]; STZ/D7 diabetic rats): 0.0127 ± 0.0027 mm/g
Heart weight (g)/BW (g) (STZ diabetic rats [12]; STZ/D7 diabetic rats, P < 0.05 vs STZ): 0.0041 ± 0.0005 g/g
Heart weight (STZ diabetic rats [12]; Sham/D7 non-diabetic rats): 1.58 ± 0.05 g
Heart weight (g)/BW (g) (STZ diabetic rats [12]; Sham/D7 non-diabetic rats): 0.0028 ± 0.0001 g/g
Left Ventricular wall thickness (STZ diabetic rats [12]; Sham/D7 non-diabetic rats): 4.03 ± 0.1 mm
Left Ventricular wall thickness per BW (STZ diabetic rats [12]; Sham/D7 non-diabetic rats): 0.0072 ± 0.0003 mm/g
Blood glucose profile versus untreated comparison group (STZ diabetic rats [12]; both treated groups, p = ns): no difference
Indicators for ventricular contraction and relaxation versus untreated diabetic group (STZ diabetic rats [12]; drug treated diabetic group): significantly improved
Trientine treated diabetic hearts still functioning (STZ diabetic rats [12]; increasing after-load, constant pre-load, when 50% of the untreated diabetic hearts had failed): about 90%
Effects on cardiac performance of normal animals (STZ diabetic rats [12]; non-diabetic rats, drug treatment): no adverse effects
Cardiac output (STZ diabetic rats [12]; pre-load increased, after-load held constant, treated diabetic rats): restored to Sham values
Drug-related adverse events (humans with T2DM): No significant drug-related adverse events
